Tests used:
Bcl-xL [1] = molecular target: T1, Bcl-xL (Homo sapiens, UniProt Q07817); assay: Alpha Screen Bcl-xL binding assay, competition with Bim26-mer; conditions: values listed in the order of Table 1; read-out: Alphascreen results (IC50)
T1 construct: made in house

Bcl-2 = molecular target: T2, Bcl-2 (Homo sapiens, UniProt P10415); assay: TR-FRET binding assay, competition with F-Bak for Bcl-2 binding site; conditions: GST-Bcl-2, F-Bak probe
T2 construct: made in house
Experimental: (§1) Test compounds were serially diluted in DMSO starting at 50 μM (2× starting concentration; 10% DMSO) and 10 μL transferred into a 384-well plate.
(§2) The samples are then mixed on a shaker for 1 minute then incubated for an additional 2 hours at room temperature. For each assay plate, a probe/antibody and protein/antibody/probe mixture were included as a negative and a positive control, respectively. Fluorescence was measured on the Envision (Perkin Elmer) using a 340/35 nm excitation filter and 520/525 (F-Bak) and 495/510 nm (Tb-labeled anti-his antibody) emission filters. Dissociation constants (Ki) were determined using Wang's equation (see, Wang, Z. X. An exact mathematical expression for describing competitive binding of two different ligands to a protein molecule. FEBS Lett. 1995 360:111-114). The TR-FRET assay can be performed in the presence of varying concentrations of human serum (HS) or fetal bovine serum (FBS).
For comparison, the measurement of the competition of compounds of the invention for other Bcl-2 family protein binding sites (e.g., Bcl-2, Mcl-1) using the TR-FRET binding assay was accomplish by substituting GST-Bcl-xL in the TR-FRET assay with other GST-labeled protein, e.g. GST-Bcl-2, GST-Mcl-1 prepared in-house.
For comparison, data (Ki in micromolar) from the measurement of the competition by certain compounds of the invention (i.e., compounds 1, 28, 38, 63, 71, 75, 80, 81, 92 and 94 in Table 1) with F-Bak for the Bcl-2 binding site using the TR-FRET binding assay are, 1.2, 0.15, 0.01, 0.018, 0.50, 0.272, 0.167, 0.66, 0.23 and 0.000003 respectively.

Bcl-xL [2] = molecular target: T1, Bcl-xL; assay: TR-FRET binding assay, competition with F-Bak for Bcl-xL binding site; conditions: GST-Bcl-xL, F-Bak probe
Experimental: The measurement of competition of compounds of the invention with F-Bak for a Bcl-2 family protein (Bcl-xL) binding site using a Time Resolved Fluorescence Resonance Energy Transfer (TR-FRET) Binding Assay:
as §1, §2

T1 sequence (Q07817 whole entry, species assumed): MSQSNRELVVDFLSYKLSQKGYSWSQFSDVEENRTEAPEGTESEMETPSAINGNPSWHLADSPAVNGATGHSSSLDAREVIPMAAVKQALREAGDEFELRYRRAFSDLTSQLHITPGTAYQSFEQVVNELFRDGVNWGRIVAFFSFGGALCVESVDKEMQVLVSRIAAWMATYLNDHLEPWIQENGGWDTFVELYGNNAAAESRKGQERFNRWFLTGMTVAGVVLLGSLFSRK
T2 sequence (P10415 whole entry, species assumed): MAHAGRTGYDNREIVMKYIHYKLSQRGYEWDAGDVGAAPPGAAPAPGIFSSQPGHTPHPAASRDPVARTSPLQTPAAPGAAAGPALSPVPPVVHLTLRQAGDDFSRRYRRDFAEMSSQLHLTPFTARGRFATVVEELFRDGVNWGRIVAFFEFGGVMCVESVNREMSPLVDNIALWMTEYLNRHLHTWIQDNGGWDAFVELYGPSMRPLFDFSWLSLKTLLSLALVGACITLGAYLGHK

## O=C(O)c1nc(-c2ccc3c(c2)N(C(=O)Nc2nc4ccccc4s2)CCC3)sc1-c1ccc(-c2ccccc2)cc1 [Example 92, 2-(1-(benzo[d]thiazol-2-ylcarbamoyl)-1,2,3,4-tetrahydroquinolin-7-yl)-5-(biphenyl-4-yl)thiazole-4-carboxylic acid]
Bcl-xL [1]
  IC50: 2 nM
Bcl-2
  Ki: 230 nM
Bcl-xL [2]
  Ki: 0.5 nM
